Series [1] deals with levamisole/benzimidazole-resistant Haemonchus contortus. The series can be described thus: Jird assay with levamisole/benzimidazole-resistant strain (cross-resistance). The settings on record: jirds, necropsy day 13 PI. It is filed as in vivo. An excerpt:
(§1) Having shown potent activity against H. contortus in sheep, dioxapyrrolomycin was examined for cross-resistance to the three major classes of broad-spectrum anthelmintics (ivermectin, levamisole, and benzimidazoles) using jirds infected with resistant strains of H. contortus. […] In vitro, the dioxapyrrolomycin dose required to affect a closantel-resistant strain of H. contortus is approximately seventeen times that required for the susceptible strain.
(§2) This in vivo assay utilizes jirds infected with two important target parasites of ruminants, H. contortus and T. colubriformis (anthelmintic-sensitive or -resistant worms can be used). Initially, activity is assessed only against H. contortus as described in G.A. Conder et. al., J. Parasitol. 76:168-170 (1990), while follow-up studies examine activity against both species of parasites using the techniques outlined in G.A. Conder et al., J. Parsitol. 77:168-170 (1991).

Series [2] concerns Haemonchus contortus. As to the kind of experiment: Haemonchus contortus / jird assay (clearance from experimentally infected jirds). The class given is in vivo. The following applies: necropsy day 13 PI; for Percentage Clearance Susceptible: susceptible strain; for Percentage Clearance H. contortus: purity ∼100%. Here is the method: as §2
For series [3], the system named is Trichostrongylus colubriformis. As to the kind of experiment: Trichostrongylus colubriformis / jird assay (clearance from experimentally infected jirds). It is filed as in vivo. The following applies: necropsy day 13 PI, purity ∼100%. Here is the method:
as §2

Series [4] relates to Caenorhabditis elegans. As to the kind of experiment: Caenorhabditis elegans in vitro assay. The settings on record: free-living nematode. An excerpt: The free-living nematode C. elegans in vitro assay has been described extensively in the literature, for example, K.G. Simpkin and G.C. Coles, J. Chem. Tech. Biotechnol., 31:66-69 (1981).
Dioxapyrrolomycin is active in the C. elegans assay at 0.825 ppm.

Series [5] relates to closantel-resistant strain of H. contortus. As to the kind of experiment: In vitro cross-resistance with closantel-resistant strain. Also on record: species or system Haemonchus contortus. The settings on record: closantel-resistant vs susceptible H. contortus.
Description: as §1

Series [6] has as its system Haemonchus contortus. The series can be described thus: Haemonchus contortus / sheep assay (clearance from monospecifically infected lambs). The class given is in vivo. The following applies: necropsy day 42 PI. The procedure:
Purpose bred, helminth-free lambs are procured. Upon arrival, the lambs are treated with ivermectin (0.2 mg/kg, subcutaneously), vaccinated for sore mouth, and placed in a single, community pen. Three weeks later each lamb is treated with levamisole hydrochloride (8.0 mg/kg per os). Two weeks after treatment with levamisole, all lambs are inoculated per os with ∼ 7,500 infective larvae of H. contortus. Rectal fecal samples are taken from each lamb 1 to 3 days prior to infection and these are examined using the double centrifugation technique to verify that the animals are free of trichostrongyles prior to infection. […] Remaining lambs are treated per os on day 35 PI; 4-5 animals receive vehicle only. Prior to administration, test materials are prepared in a manner suitable for the substance being examined. All lambs are monitored for toxic signs following treatment. Lambs are killed 7 days after treatment (day 42 PI), and the abomasum is ligated and removed from each animal. Each abomasum is opened longitudinally and the contents rinsed into an 80 mesh sieve. Sieve contents are collected in individual containers and fixed in formol-alcohol. Later each sample is transferred to a 1,000 ml graduated cylinder and the volume brought to 400 - 1000 ml with tap water. The total number of worms in a 10% aliquot is determined. If no worms are found in the 10% aliquot, the entire sample is examined. Total worm number/lamb and percentage clearance for each treatment are calculated. Percentage clearance is determined according to the following formula: Percentage clearance = [(Mean number of worms recovered from vehicle control lambs - number of worms recovered from treated lamb)/mean number of worms recovered from vehicle control lambs] x 100.

Series [7] concerns ivermectin-resistant Haemonchus contortus. As to the kind of experiment: Jird assay with ivermectin-resistant strain (cross-resistance). The class given is in vivo. The following applies: jirds, necropsy day 13 PI.
Description: as §1, §2

For series [8] the following is noted: mice, cited from earlier work.
The mark [9] stands for this setting: 0.012 mg/jird per os on day 10 PI.
The mark [10] stands for this setting: 0.11 mg/jird per os on day 10 PI.
Where [11] appears, read: 0.11 mg/jird per os day 10 PI, purity 95%.

Broadly, the LD50 is the dose expected to kill half of the subjects tested.

Values joined by “and” are separate entries in the source; they are usually repeats but may differ in a detail not shown here. Equal entries are not always repeated. Structures can show the parent of a compound that is named as a salt. Where two headings read alike, the source gives them in different places.

Take `CCCSc1ccc2nc(NC(=O)OC)[nH]c2c1` [Albendazole, reference compound]: in series [1] (0.075 mg/jird per os day 10 PI), the “Percentage Clearance Levamisole/Benzimidazole Resistant” value is recorded as 36.2%. In series [2] (0.075 mg/jird per os day 10 PI), the “Percentage Clearance Susceptible” value is reported as “∼95.0%”.
With `O=[N+]([O-])c1c([C@H]2OCOc3c(Cl)cc(Cl)cc32)[nH]c(Cl)c1Cl` [Dioxapyrrolomycin, dioxapyrrolomycin], the “Percentage Clearance T. colubriformis” value is 48.8% in series [3] (setting [9]), 17.2% in series [3] (0.037 mg/jird per os on day 10 PI), 0% in series [3] (setting [10]) and 41.5% in series [3] (0.33 mg/jird (= 8.25 mg/kg) per os on day 10 PI). The “Percentage Clearance Levamisole/Benzimidazole Resistant” value in series [1] (setting [11]) came to 98.6%. In addition, the “active in the C. elegans in vitro assay at” value in series [4] is 0.825 ppm. Also, the “dose required to affect a closantel-resistant strain relative to that required for the susceptible strain” value in series [5] was “approximately seventeen”. The “Percentage Clearance” value in series [6] (0.78 mg/kg per os on day 35 PI) is 44.0%; in series [6] (1.56 mg/kg per os on day 35 PI), 92.2%; in series [6] (3.125 mg/kg per os on day 35 PI, 3.125 mg/kg), 99.7% and 99.9%; in series [6] (6.25 mg/kg per os on day 35 PI), 99.9%; in series [6] (12.5 mg/kg per os on day 35 PI), 100%. The “Percentage Clearance H. contortus” value in series [2] (setting [9]) worked out at 45.8%; in series [2] (0.037 mg/jird (= 0.925 mg/kg) per os on day 10 PI) it was 96.4%; in series [2] (setting [10]) it was 100%. In addition, the “Percentage Clearance Susceptible” value in series [2] (setting [11]) is on record as 95.8%. Moreover, in series [7] (setting [11]), the “Percentage Clearance Ivermectin Resistant” value was 92.7%. The results for the LD50 in series [8] (ip) and in series [8] (po) were 125 to 250 mg/kg and 13 mg/kg, respectively.
Take `c1ccc([C@H]2CN3CCSC3=N2)cc1` [Levamisole hydrochloride]: the “Percentage Clearance Levamisole/Benzimidazole Resistant” value in series [1] (0.4 mg/jird per os day 10 PI) is on record as 51.7%. Besides, in series [2] (0.4 mg/jird per os day 10 PI), the “Percentage Clearance Susceptible” value is given as “∼95.0%”. In series [7] (0.4 mg/jird per os day 10 PI), the “Percentage Clearance Ivermectin Resistant” value amounted to 96.4%.
Regarding Ivermectin, the “Percentage Clearance Levamisole/Benzimidazole Resistant” value in series [1] (0.005 mg/jird per os day 10 PI) came to 98.6%. The “Percentage Clearance Susceptible” value in series [2] (0.005 mg/jird per os day 10 PI) was “∼95.0%”. Further, in series [7] (0.005 mg/jird per os day 10 PI), the “Percentage Clearance Ivermectin Resistant” value is 18.7%.

These data come from patent EP0597004B1, “THE USE OF DIOXAPYRROLOMYCIN AS AN ANTIPARASITIC AGENT AND COMPOSITIONS USEFUL THEREFOR” (PHARMACIA & UPJOHN COMPANY, priority 1991, dated 1993).
